Experimental data: patent US20170209514A1, “Method For Promoting Bone Length Growth” (Novatec Co., Ltd., priority 2013, published 2017)

Columns and labels:
Format in all cases: in vivo, Sprague-Dawley rats
[1] = Change in body weight of experimental animals; conditions: rats, observation of 10 days, FIG. 1 (bamboo extract 200 mg/kg oral; GH 20 μg/kg s.c.)
Procedure: (§1) 3 weeks-old, male Sprague-Dawley rats were obtained and stabilized for 3 days. The feeding conditions included the temperature of 24±2° C., the light-dark cycle of 12 hours, and common solid feed without the inclusion of antibiotics. While the Control group was treated with saline solution, the bamboo (Bambusae caulis in Taeniam) extract, which was prepared in the powder form as described in the above example 1 and added with water, was orally administered once daily. The Positive Control group was treated subcutaneously with the injection of Eutropin (LG Life Sciences, South Korea) at 20 μg/kg once daily.
Regarding the administration method of the bamboo (Bambusae caulis in Taeniam) extract according to the present invention, rats in all the groups except for the Positive Control group were administered into their oral cavities, while all the rats were administered once daily.
The administered substances and dosages in each group are as follows: • Control Group: normal saline solution 1 ml • Positive Control Group: growth hormone 20 μg/kg • Bamboo (Bambusae caulis in Taeniam)-treated Group: 200 mg/kg […]
Rats of each group in Experiment <1-1> were tested for their body weight at pre- and post-feeding of 10 days. […] The measured values were statistically analyzed for mean value and standard deviation.

growth plate = assay: Changes in cartilaginous tissues within the growth plate (H&E staining); conditions: rats, after 10-day administration, FIGS. 5A-7
Procedure: as §1
(§2) The administered substances and dosages in each group are as follows: • Control Group: normal saline solution 1 ml • Positive Control Group: growth hormone 20 μg/kg • Bamboo (Bambusae caulis in Taeniam)-treated Group: 200 mg/kg
(§3) After 10 days of feeding and administration of the above-mentioned substances, the rats were sacrificed with autopsy performed to find the following results.
In order to measure the length of the growth plate zone, the cartilaginous tissues were fixated after autopsy, followed by H&E staining and microscope examination. The length of the growth plate zone was measured five(5) times for each sample. The resulting mean values as obtained were used as a representative value for evaluating their significance.

tibia = assay: Measurement of changes in tibia length by X-ray; conditions: rats, after 10-day administration, vs Control group, FIGS. 3A-3C & 4
Procedure: as §1, §2, §3
After 10-day administration as described in Experiment <1-1>, both right and left tibias of the rats in the experimental group (i.e. Bamboo (Bambusae caulis in Taeniam) extract-treated group) and the control groups were collected, followed by the removal of the muscles, fats and ligaments attached to the bone tissues. […] Tibia length was measured by X-ray radiographs on the tibias.

osteocalcin = assay: Osteoblast-activating factor osteocalcin in the serum (ELISA); conditions: rats, after 10-day administration, in comparison with the Control group, FIG. 10
Procedure: as §1, §2, §3
After the completion of the administration, blood was collected from the hearts of the experimental rats and coagulated. Serum was then separated so as to obtain samples. Subsequently, the total level of osteocalcin in the serum was measured by using Rat Ostecalcin/Bone Gla Protein. OT/BGP ELISA Kit (Cusabio, product no.: CSB-E05129r).

Question: Which Weight change [1] does the source give for “GH: Growth hormone positive control, Eutropin (LG Life Sciences, South Korea), injected subcutaneously at 20 μg/kg once daily” here?
Answer: no significant difference in weight change

Question: And the “Length of the hypertrophic zone within the growth plate” value (growth plate)?
Answer: increased greater than that of the Control group

Question: What about the “Length of the proliferative zone within the growth plate” value (growth plate) of the same substance?
Answer: increased greater than that of the Control group

Question: What about the Total tibia length (tibia) of the same substance?
Answer: increased greater than that of the Control group

Question: What about the “Level of osteocalcin in the serum” value (osteocalcin) of the same substance?
Answer: significantly increased
